Test [1] concerns the target T1, human JAK2 kinase domain (JH1) (Homo sapiens, UniProt O60674).
T1 construct: recombinantly generated catalytic kinase (also known as JH1) domain of human JAK1, JAK2, JAK3 and TYK2
As to the kind of experiment: JH1 biochemical assay for JAK2 (ADP-Glo kinase assay, recombinant JH1 catalytic domain, JAK3-974 peptide, 15 μM ATP). The gist of the method:
(§1)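 Kinase 4 nM JAK1 / 0.2 nM JAK2 / 0.3 nM JAK3 / 2 nM TYK2; 50 μM peptide; 100 min. Unused ATP depleted, ADP→ATP, luciferase luminescence. 11-pt 3-fold series from 10 or 1 μM; normalized, 4PL fit → IC50.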

The target of test [2] is T2, human JAK3 kinase domain (JH1) (Homo sapiens, UniProt P52333).
T2 construct: recombinantly generated catalytic kinase (also known as JH1) domain of human JAK1, JAK2, JAK3 and TYK2
T2 sequence (P52333 822-1111 limits assumed): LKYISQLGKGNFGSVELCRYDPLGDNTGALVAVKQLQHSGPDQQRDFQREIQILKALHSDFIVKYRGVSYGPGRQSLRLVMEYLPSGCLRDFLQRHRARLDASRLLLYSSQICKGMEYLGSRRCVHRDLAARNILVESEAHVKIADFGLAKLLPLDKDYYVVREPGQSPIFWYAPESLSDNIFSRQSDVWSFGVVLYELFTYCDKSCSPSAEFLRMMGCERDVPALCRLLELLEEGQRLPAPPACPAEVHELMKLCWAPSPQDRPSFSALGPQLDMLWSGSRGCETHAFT
Nature of the test: JH1 biochemical assay for JAK3 (ADP-Glo kinase assay, recombinant JH1 catalytic domain, JAK3-974 peptide, 4 μM ATP). The gist of the method:
as §1

The target in test [3] is T3, human JAK1 kinase domain (JH1) (Homo sapiens, UniProt P23458).
T3 construct: recombinantly generated catalytic kinase (also known as JH1) domain of human JAK1, JAK2, JAK3 and TYK2
T3 sequence (P23458 875-1153 limits assumed): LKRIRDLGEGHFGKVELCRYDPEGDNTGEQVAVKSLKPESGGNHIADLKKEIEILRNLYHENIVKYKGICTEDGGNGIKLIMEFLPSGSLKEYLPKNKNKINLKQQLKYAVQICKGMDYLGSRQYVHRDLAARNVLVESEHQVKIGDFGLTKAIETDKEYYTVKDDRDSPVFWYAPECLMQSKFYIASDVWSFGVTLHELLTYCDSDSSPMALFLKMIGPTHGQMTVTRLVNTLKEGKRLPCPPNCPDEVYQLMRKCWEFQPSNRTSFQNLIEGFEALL
Nature of the test: JH1 biochemical assay for JAK1 (ADP-Glo kinase assay, recombinant JH1 catalytic domain, JAK3-342 peptide, 35 μM ATP). A digest of the protocol: as §1

The target of test [4] is Tyk2 kinase activity on STAT4 in NK92 cells (Homo sapiens, UniProt P29597). Nature of the test: pSTAT4 cell assay (MSD; NK92 cells, 30 ng/mL IL2 stimulation). The test is classed as cell-based. To be noted: 30 ng/mL IL2, 15 minutes. The method, then:
The inhibitory potency of compounds of the disclosure against the Tyk2 kinase activity on STAT4 was evaluated using an MSD-platform plate-based assay format. NK92 cells natively expressing STAT4 and Tyk2 were serum-starved to reduce background phosphorylation levels, then cells were treated compounds for 1 hr with a 10-point four-fold dilution series starting at 10 μM. Cells were then stimulated with 30 ng/mL IL2 for 15 minutes. Cells were lysed and […] levels were quantitated using an MSD plate-based assay with anti-STAT4 antibodies. The data were normalized and the percent activity versus log concentration of compound were fitted with a 4-parameter logistic model to generate to generate IC50 curves.

Test [5] concerns the target T4, human TYK2 kinase domain (JH1) (Homo sapiens, UniProt P29597).
T4 construct: recombinantly generated catalytic kinase (also known as JH1) domain of human JAK1, JAK2, JAK3 and TYK2
T4 sequence (P29597 897-1176 limits assumed): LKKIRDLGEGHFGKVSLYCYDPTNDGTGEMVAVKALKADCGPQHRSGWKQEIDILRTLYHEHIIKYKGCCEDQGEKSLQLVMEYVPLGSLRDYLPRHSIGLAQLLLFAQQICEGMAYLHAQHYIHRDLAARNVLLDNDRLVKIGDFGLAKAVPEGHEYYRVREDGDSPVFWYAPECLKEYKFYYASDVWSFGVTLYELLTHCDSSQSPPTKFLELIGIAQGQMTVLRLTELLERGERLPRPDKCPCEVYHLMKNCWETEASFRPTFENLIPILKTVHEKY
As to the kind of experiment: JH1 biochemical assay for TYK2 (ADP-Glo kinase assay, recombinant JH1 catalytic domain, JAK3-974 peptide, 10 μM ATP). The gist of the method: as §1

The structures appear in SMILES notation. Where a name gives a salt, the structure may show the parent alone.

T1 sequence (O60674 849-1124 limits assumed): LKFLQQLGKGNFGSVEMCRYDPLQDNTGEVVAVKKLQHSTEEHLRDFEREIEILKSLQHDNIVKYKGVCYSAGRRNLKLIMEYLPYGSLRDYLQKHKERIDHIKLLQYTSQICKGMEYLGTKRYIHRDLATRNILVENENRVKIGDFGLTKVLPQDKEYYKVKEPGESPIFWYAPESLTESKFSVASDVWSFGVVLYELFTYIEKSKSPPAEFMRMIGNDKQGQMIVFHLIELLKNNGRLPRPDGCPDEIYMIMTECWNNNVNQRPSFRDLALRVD
Sequence of Tyk2 kinase activity on STAT4 in NK92 cells (P29597 whole entry): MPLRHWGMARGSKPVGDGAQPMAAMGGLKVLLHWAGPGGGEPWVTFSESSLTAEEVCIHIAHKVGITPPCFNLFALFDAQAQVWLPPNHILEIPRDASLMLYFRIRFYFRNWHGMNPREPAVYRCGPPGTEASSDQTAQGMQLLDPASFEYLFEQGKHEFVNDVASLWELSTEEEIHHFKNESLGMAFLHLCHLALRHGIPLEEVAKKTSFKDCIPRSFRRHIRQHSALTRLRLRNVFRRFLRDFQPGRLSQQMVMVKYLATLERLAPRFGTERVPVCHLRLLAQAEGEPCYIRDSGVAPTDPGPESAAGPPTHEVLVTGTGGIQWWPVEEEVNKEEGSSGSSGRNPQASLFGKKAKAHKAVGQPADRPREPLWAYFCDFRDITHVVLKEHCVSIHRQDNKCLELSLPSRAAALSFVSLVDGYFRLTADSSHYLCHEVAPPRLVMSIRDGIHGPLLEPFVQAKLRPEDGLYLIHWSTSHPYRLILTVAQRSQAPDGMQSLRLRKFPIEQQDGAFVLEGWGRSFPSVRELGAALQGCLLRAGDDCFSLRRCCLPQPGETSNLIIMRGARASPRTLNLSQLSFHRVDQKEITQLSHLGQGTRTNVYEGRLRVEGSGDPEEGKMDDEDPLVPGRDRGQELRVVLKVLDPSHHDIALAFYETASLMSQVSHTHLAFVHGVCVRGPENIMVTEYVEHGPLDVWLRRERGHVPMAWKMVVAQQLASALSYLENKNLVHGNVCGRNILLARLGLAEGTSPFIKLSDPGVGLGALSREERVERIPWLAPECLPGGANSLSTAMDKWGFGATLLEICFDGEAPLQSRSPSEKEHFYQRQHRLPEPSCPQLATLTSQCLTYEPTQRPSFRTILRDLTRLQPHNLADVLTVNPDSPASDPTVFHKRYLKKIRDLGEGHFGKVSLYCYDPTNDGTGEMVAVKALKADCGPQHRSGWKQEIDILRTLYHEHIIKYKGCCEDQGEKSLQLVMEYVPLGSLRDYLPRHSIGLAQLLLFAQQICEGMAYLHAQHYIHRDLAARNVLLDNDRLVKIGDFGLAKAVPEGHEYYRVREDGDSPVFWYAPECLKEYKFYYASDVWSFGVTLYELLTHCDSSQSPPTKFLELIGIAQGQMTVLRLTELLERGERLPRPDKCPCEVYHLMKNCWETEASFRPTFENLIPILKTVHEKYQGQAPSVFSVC

`C[C@@H]1CN(c2ccnn3cc(-c4cnn([C@@H]5COCC(F)(F)C5)c4)cc23)C(=O)[C@]1(C#N)C1CC1` (single isomer, unassigned) [Example 328]: the IC50 in test [1] (JAK2 JH1, ADP-Glo) was less than 100 nM; in test [2] (JAK3 JH1, ADP-Glo), less than 100 nM; in test [3] (JAK1 JH1, ADP-Glo), less than 100 nM; in test [4], more than 100 nM; in test [5] (TYK2 JH1, ADP-Glo), less than 5 nM.
`COc1ccc(-c2cn3nccc3c(N3C[C@@H](C)[C@@](C#N)(C4CC4)C3=O)n2)nc1` [Example 213, (3R,4S)-3-cyclopropyl-1-(6-(5-methoxypyridin-2-yl)pyrazolo[1,5-a]pyrazin-4-yl)-4-methyl-2-oxopyrrolidine-3-carbonitrile]: the IC50 in test [1] (JH1 kinase domain, ADP-Glo) was 1000 to 5000 nM; in test [2] (JH1 kinase domain, ADP-Glo) it was 100 to 1000 nM; in test [3] (JH1 kinase domain, ADP-Glo), less than 100 nM; in test [4] it was more than 100 nM; in test [5] (JH1 kinase domain, ADP-Glo), 5 to 20 nM.
Take `C[C@@H]1CN(c2nc(-c3ccc(N(C)C(=O)OC(C)(C)C)nc3)cn3nccc23)C(=O)[C@]1(C#N)C1CC1` [Example 266, tert-butyl (5-(4-((3R,4S)-3-cyano-3-cyclopropyl-4-methyl-2-oxopyrrolidin-1-yl)pyrazolo[1,5-a]pyrazin-6-yl)pyridin-2-yl)(methyl)carbamate trifluoroacetate]: the IC50 in test [1] (JAK2 JH1, ADP-Glo) is less than 100 nM; in test [2] (JAK3 JH1, ADP-Glo), less than 100 nM; in test [3] (JAK1 JH1, ADP-Glo) it was less than 100 nM; in test [4], 50 to 100 nM; in test [5] (TYK2 JH1, ADP-Glo), less than 5 nM.
As to `C[C@@H]1CN(c2nc(-c3cnn(CC4(C)COC4)c3)cn3ncc(F)c23)C(=O)[C@]1(C#N)C1CC1` [Example 303, (3R,4S)-3-cyclopropyl-1-(3-fluoro-6-(1-((3-methyloxetan-3-yl)methyl)-1H-pyrazol-4-yl)pyrazolo[1,5-a]pyrazin-4-yl)-4-methyl-2-oxopyrrolidine-3-carbonitrile], the IC50 in test [1] (JAK2 JH1, ADP-Glo) was less than 100 nM; in test [2] (JAK3 JH1, ADP-Glo), less than 100 nM; in test [3] (JAK1 JH1, ADP-Glo), less than 100 nM; in test [4], 50 to 100 nM; in test [5] (TYK2 JH1, ADP-Glo) it was less than 5 nM.
With `CC(C)[C@@]1(C#N)C(=O)N(c2nc(-c3cnn(C)c3)cn3ncc(F)c23)C[C@H]1C` [Example 310, (3R,4S)-1-(3-fluoro-6-(1-methyl-1H-pyrazol-4-yl)pyrazolo[1,5-a]pyrazin-4-yl)-3-isopropyl-4-methyl-2-oxopyrrolidine-3-carbonitrile], the half-maximal inhibitory concentration (IC50) in test [1] (JAK2 JH1, ADP-Glo) is 100 to 1000 nM; in test [2] (JAK3 JH1, ADP-Glo), less than 100 nM; in test [3] (JAK1 JH1, ADP-Glo), 100 to 1000 nM; in test [4], more than 100 nM; in test [5] (TYK2 JH1, ADP-Glo), 5 to 20 nM.
On to `C[C@@H]1CN(c2ccnn3cc(-n4cc(C5CN(C)CCO5)cn4)cc23)C(=O)[C@]1(C#N)C1CC1` (stereo partly drawn) [Example 317, (3R,4S)-3-cyclopropyl-4-methyl-1-(6-(4-(4-methylmorpholin-2-yl)-1H-pyrazol-1-yl)pyrrolo[1,2-b]pyridazin-4-yl)-2-oxopyrrolidine-3-carbonitrile], for which the IC50 in test [1] (JAK2 JH1, ADP-Glo) was 100 to 1000 nM; in test [2] (JAK3 JH1, ADP-Glo), 100 to 1000 nM; in test [3] (JAK1 JH1, ADP-Glo), 1000 to 5000 nM; in test [4] it was more than 100 nM; in test [5] (TYK2 JH1, ADP-Glo) it was 20 to 50 nM.
Consider `Cc1cc(-c2cc(N3C[C@@H](C)[C@@](C#N)(C4CC4)C3=O)c3ccnn3c2)n[nH]1` [Example 318, (3R,4S)-3-cyclopropyl-4-methyl-1-(6-(5-methyl-1H-pyrazol-3-yl)pyrazolo[1,5-a]pyridin-4-yl)-2-oxopyrrolidine-3-carbonitrile], for which the IC50 in test [1] (JAK2 JH1, ADP-Glo) was 1000 to 5000 nM; in test [2] (JAK3 JH1, ADP-Glo), 100 to 1000 nM; in test [3] (JAK1 JH1, ADP-Glo), 100 to 1000 nM; in test [4], more than 100 nM; in test [5] (TYK2 JH1, ADP-Glo), 5 to 20 nM.
Take `C[C@@H]1CN(c2ccnn3cc(-c4cnn(C5(CO)CC5)c4)cc23)C(=O)[C@]1(C#N)C1CC1` [Example 322, (3R,4S)-3-cyclopropyl-1-(6-(1-(1-(hydroxymethyl)cyclopropyl)-1H-pyrazol-4-yl)pyrrolo[1,2-b]pyridazin-4-yl)-4-methyl-2-oxopyrrolidine-3-carbonitrile]: the IC50 in test [1] (JAK2 JH1, ADP-Glo) is 100 to 1000 nM; in test [2] (JAK3 JH1, ADP-Glo), less than 100 nM; in test [3] (JAK1 JH1, ADP-Glo), 100 to 1000 nM; in test [4], 50 to 100 nM; in test [5] (TYK2 JH1, ADP-Glo) it was less than 5 nM.
As to `C[C@@H]1CN(c2ccnn3cc(-c4cnn(CC5(C)COC5)c4)cc23)C(=O)[C@]1(C#N)C1CC1` [Example 325, (3R,4S)-3-cyclopropyl-4-methyl-1-(6-(1-((3-methyloxetan-3-yl)methyl)-1H-pyrazol-4-yl)pyrrolo[1,2-b]pyridazin-4-yl)-2-oxopyrrolidine-3-carbonitrile], the IC50 is less than 100 nM in test [1] (JAK2 JH1, ADP-Glo); less than 100 nM in test [2] (JAK3 JH1, ADP-Glo); less than 100 nM in test [3] (JAK1 JH1, ADP-Glo); 20 to 50 nM in test [4]; less than 5 nM in test [5] (TYK2 JH1, ADP-Glo).
Turning to `COCc1cnn(-c2cc3c(N4C[C@@H](C)[C@@](C#N)(C5CC5)C4=O)ccnn3c2)c1` [Example 337, (3R,4S)-3-cyclopropyl-1-(6-(4-(methoxymethyl)-1H-pyrazol-1-yl)pyrrolo[1,2-b]pyridazin-4-yl)-4-methyl-2-oxopyrrolidine-3-carbonitrile], the IC50 in test [1] (JAK2 JH1, ADP-Glo) was 100 to 1000 nM; in test [2] (JAK3 JH1, ADP-Glo), 100 to 1000 nM; in test [3] (JAK1 JH1, ADP-Glo), 100 to 1000 nM; in test [4], more than 100 nM; in test [5] (TYK2 JH1, ADP-Glo) it was 20 to 50 nM.
With `C[C@@H]1CN(c2ccnn3cc(-n4cc(C(F)F)cn4)cc23)C(=O)[C@]1(C#N)C1CC1` [Example 338, (3R,4S)-3-cyclopropyl-1-(6-(4-(difluoromethyl)-1H-pyrazol-1-yl)pyrrolo[1,2-b]pyridazin-4-yl)-4-methyl-2-oxopyrrolidine-3-carbonitrile], the IC50 was 100 to 1000 nM in test [1] (JAK2 JH1, ADP-Glo); 100 to 1000 nM in test [2] (JAK3 JH1, ADP-Glo); 1000 to 5000 nM in test [3] (JAK1 JH1, ADP-Glo); more than 100 nM in test [4]; 20 to 50 nM in test [5] (TYK2 JH1, ADP-Glo).
Take `C[C@@H]1CN(c2ccnn3cc(-n4cc(CC#N)cn4)cc23)C(=O)[C@]1(C#N)C1CC1` [Example 339, (3R,4S)-1-(6-(4-(cyanomethyl)-1H-pyrazol-1-yl)pyrrolo[1,2-b]pyridazin-4-yl)-3-cyclopropyl-4-methyl-2-oxopyrrolidine-3-carbonitrile]: the IC50 in test [1] (JAK2 JH1, ADP-Glo) was 100 to 1000 nM; in test [2] (JAK3 JH1, ADP-Glo), 100 to 1000 nM; in test [3] (JAK1 JH1, ADP-Glo), 100 to 1000 nM; in test [4], more than 100 nM; in test [5] (TYK2 JH1, ADP-Glo), 20 to 50 nM.
With `C[C@@H]1CN(c2nc(-c3cnn(C4COC4)c3)cc3ncsc23)C(=O)[C@]1(C#N)C1CC1` [Example 352, (3R,4S)-3-cyclopropyl-4-methyl-1-(6-(1-(oxetan-3-yl)-1H-pyrazol-4-yl)thiazolo[5,4-c]pyridin-4-yl)-2-oxopyrrolidine-3-carbonitrile], the IC50 in test [1] (JAK2 JH1, ADP-Glo) is less than 100 nM; in test [2] (JAK3 JH1, ADP-Glo), less than 100 nM; in test [3] (JAK1 JH1, ADP-Glo), less than 100 nM; in test [4] it was 20 to 50 nM; in test [5] (TYK2 JH1, ADP-Glo) it was less than 5 nM.

These data come from patent US20260297085A1, “1 H-PYRROLO[2,3-B]PYRIDIN-4-YL]-2-OXOPYRROLIDINE-3-CARBONITRILE DERIVATIVES AS TYROSINE KINASE 2 (TYK2) INHIBITORS FOR THE TREATMENT OF INFLAMMATORY DISEASES” (BIOGEN MA INC., priority 2023, published 2026).
